This is an account of results in patent US20240376165A1, “COMPOSITION COMPRISING VGLL1 PEPTIDE FOR TREATMENT OF CANCER” (ONECUREGEN CO., LTD., priority 2020, published 2024).

For one assay, the system named is stomach cancer cells. Nature of the assay: Proliferation of various cancer cells: stomach cancer. The assay is classed as cell-based. As to conditions: 60 μM peptide; NUGC3, AG5, NCI-N87, SNU484, MKN1; FIG. 12. How it is done: (§1) In order to confirm the various cancer cell proliferation inhibitory effects of the variant of S84 VGLL1 peptide fragment, the VGLL1 S84 peptide sequence represented by SEQ ID NO: 27 was treated into various cancer cell lines.
(§2) Specifically, the cancer cells of Table 8 were cultured in a 96-well plate and treated with 60 μM peptide on the next day, and cell proliferation was analyzed using a real-time cell analysis system (product name: IncuCyte Zoom).

Assay [1] deals with stomach cancer cell line NUGC3. As to the kind of experiment: Cancer cell proliferation with peptide variants, real-time cell analysis (Incucyte). The assay is classed as cell-based, human. To be noted: NUGC3, 60 μM peptide, FIG. 11. Here is the method:
The stomach cancer cell line NUGC3 was cultured in a 96-well plate, and the next day, the cells were treated with 60 μM peptide. The cell proliferation was analyzed using a real-time cell analysis system (product name: Incucyte).
FIG. 11A is a graph of real-time cell proliferation, and FIG. 11B is a graph showing cell proliferation after 4 days based on 100% control peptide.

The subject of assay [2] is stomach cancer cell line NUGC3. Nature of the assay: Cancer cell proliferation, real-time cell analysis (IncuCyte Zoom). Type of assay: cell-based, human. To be noted: FIG. 9. Here is the method:
Specifically, the stomach cancer cell line NUGC3 was cultured in a 96-well plate. The next day, the cells were treated with the peptide fragment. The cell proliferation was analyzed using a real-time cell analysis system (product name: IncuCyte Zoom).

In the next assay the test system is breast cancer cells. Nature of the assay: Proliferation of various cancer cells: breast cancer. As to conditions: 60 μM peptide; MCF7, SKBR3; FIG. 12. The assay is classed as cell-based. Here is the method:
as §1, §2

Another assay has as its system liver cancer cells. Nature of the assay: Proliferation of various cancer cells: liver cancer. The assay is classed as cell-based. As to conditions: 60 μM peptide; HepG2, SNU354; FIG. 12. How it is done:
as §1, §2

The subject of a further assay is prostate cancer cells. Nature of the assay: Proliferation of various cancer cells: prostate cancer. The assay is classed as cell-based. As to conditions: 60 μM peptide; FIG. 12. Here is the method:
as §1, §2

The next assay deals with colorectal cancer cells. As to the kind of experiment: Proliferation of various cancer cells: colorectal cancer. Type of assay: cell-based. As to conditions: 60 μM peptide; SW620, HCT116, WiDr; FIG. 12. How it is done: as §1, §2
Another assay relates to lung cancer cells. Nature of the assay: Proliferation of various cancer cells: lung cancer. The assay is classed as cell-based. As to conditions: 60 μM peptide; A549, H1650, H1299; FIG. 12. How it is done:
as §1, §2

The next assay concerns ovarian cancer cells. As to the kind of experiment: Proliferation of various cancer cells: ovarian cancer. The assay is classed as cell-based. As to conditions: 60 μM peptide; SK-OV3; FIG. 12. How it is done: as §1, §2
The next assay relates to MMP9. Nature of the assay: MMP9 protein expression induced by TGF-β, western blot, peptide treatment. To be noted: NUGC3, TGF-β and peptide for 18 hours, FIG. 8. Type of assay: cell-based, human. Here is the method:
To evaluate whether the peptide fragment that interferes the binding between VGLL1 and TEAD4 can inhibit MMP9 expression in human stomach cancer cells, peptides shown in Table 6 were prepared to examine their effects on MMP9 expression.
Experiments were performed using the synthetic peptide fragments. The stomach cancer NUGC3 cells were cultured in a 6-well plate. The next day, cells were cultured in serum-free cell culture for 24 hours. TGF-β and a control peptide fragment (SEQ ID NO: 12), a peptide fragment containing serine at position 84 of VGLL1 (SEQ ID NO: 27), and a mutant peptide fragment containing alanine at position 84 of VGLL1 (SEQ ID NO: 28) were treated into cells for 18 hours. Proteins were extracted from the cells using a Ripa buffer and were separated by electrophoresis. Thereafter, protein expression of genes was confirmed by using an antibody on the polyvinylidene fluoride membrane.
A general note: Immunoblotting shows a protein as a band on a membrane.

Assay [3] concerns stomach cancer cell line NUGC3. Nature of the assay: Cancer cell invasion with peptide fragment. To be noted: NUGC3, insert, 48 hours, FIG. 10. Type of assay: cell-based, human. How it is done:
Next, in order to confirm the cell invasive ability of MMP9, a cell culture insert was fixed in a 24-well plate. Matrigel was diluted 20-fold, and 100 μl of diluent was added. The reaction was carried out at 37° C. for 1 hour or longer. 700 μl of medium containing 10% serum was added to a 24-well plate under the insert. MMP knockdown cells with the above siRNA were added to the insert according to 300 μl of serum-free medium to a concentration of 5×10^5. After 48 hours, the insert was removed and cells were fixed in 10% formalin solution. Cells remaining inside the insert were removed with a cotton swab and washed with water. Cells were stained with 0.4% Sulforhodamine B solution for 1 hour, washed with acetic acid, and dried. Then, a photograph was taken with an optical microscope, the membrane on the insert was cut, and Sulforhodamine B in stained cells was dissolved in 10 mM Tris solution, and absorbance was measured at 540 nm using an ELISA plate reader (FIG. 2C).
A method similar to Example 1-2 was performed for stomach cancer cell invasion experiment by the VGLL1 peptide fragment.
The stomach cancer cell line NUGC3 was placed in an insert together with the peptide fragment. After 48 hours of cell culture, the insert was fixed in a 10% formalin solution, and the downwardly migrated cells were confirmed by staining with 0.4% Sulforhodamine B solution.

Another assay relates to cervical cancer cells. As to the kind of experiment: Proliferation of various cancer cells: cervical cancer. The assay is classed as cell-based. As to conditions: 60 μM peptide; Hela; FIG. 12. How it is done: as §1, §2

As for “YGRKKRRQRRRPNQWRYSSPWTKPQP [VGLL1 (S84)]”, in the assay with stomach cancer cells, the “inhibition of proliferation of stomach cancer cells” value was “excellent effect in inhibiting the proliferation”. The “inhibition of cancer cell proliferation” value is “excellent effect in inhibiting cancer cell proliferation” in assay [1] and “exhibited an effect of inhibiting cancer cell proliferation” in assay [2]. The “inhibition of proliferation of breast cancer cells” value in the assay on breast cancer cells is reported as “excellent effect in inhibiting the proliferation”. For the same sequence, the “inhibition of proliferation of liver cancer cells” value with liver cancer cells is “excellent effect in inhibiting the proliferation”. Besides, the “inhibition of proliferation of prostate cancer cells” value in the assay on prostate cancer cells is given as “excellent effect in inhibiting the proliferation”. Moreover, in the assay on colorectal cancer cells, the “inhibition of proliferation of colorectal cancer cells” value is “excellent effect in inhibiting the proliferation”. Further, the “inhibition of proliferation of lung cancer cells” value in the assay on lung cancer cells is reported as “excellent effect in inhibiting the proliferation”. Moreover, the “inhibition of proliferation of ovarian cancer cells” value in the assay on ovarian cancer cells was “excellent effect in inhibiting the proliferation”. Further, the “increased MMP9 expression by TGF-β” value in the assay with MMP9 was “reduced”. Besides, in assay [3], the “inhibition of cancer cell invasion” value was “exhibited an effect of inhibiting cancer cell invasion”. Besides, in the assay with cervical cancer cells, the “inhibition of proliferation of cervical cancer cells” value is “excellent effect in inhibiting the proliferation”.
